This experiment deals with Human dermal fibroblast cells. Description: Pro-collagen I production in human dermal fibroblast cells (HTRF human pro-collagen I kit). It is filed as cell-based. The settings on record: peptide concentration 0.001% in DMEM media without FBS, 48 h treatment, percent change relative to vehicle control. As for the experimental part:
Human dermal fibroblast cells were grown in a 96 well plate in DMEM media (available from Corning, N.Y.) supplemented with 10% Fetal Bovine Serum (FBS) and L-glutamine (0.07×10^5 cells/plate). After reaching about 75% confluence, cells were transferred into DMEM media without FBS and incubated for 4-6 hours. Next, cells were treated with peptide of Formula I at 0.00001%, 0.0001%, 0.001% final concentration in DMEM media without FBS for 48 h. After treatment the media were collected, and cell viability was measured using MTT. The amount of secreted collagen was tested in the media using HTRF human pro-collagen I kit (Cisbio Inc, Bedford, Mass.).
Results are summarized in Table 1 below as percent change of pro-collagen I production relative to vehicle control: […]
(In general: In TR-FRET formats the signal depends on donor and acceptor labels being close together.)

The text below walks through data of patent US20170281508A1, “Peptides and Their Use in the Treatment of Skin” (AVON PRODUCTS, INC., priority 2014, published 2017).

Peptide text beside a SMILES is read from it.

Take `CCC(C)C(NC(=O)C(N)CCC(N)=O)C(=O)NC(CC(C)C)C(=O)NC(CO)C(=O)NC(CCCCN)C(=O)NC(CC(C)C)C(=O)NC(CCCNC(=N)N)C(=O)NC(CC(C)C)C(=O)O` (stereo not drawn) [QILSKLRL (SEQ ID NO: 1), Gln-Ile-Leu-Ser-Lys-Leu-Arg-Leu] (H-QILSKLRL-OH; configuration not given here): the “Increase in Pro-Collagen I Production” value is “+10-30%”. Moreover, the “Increase in Pro-Collagen I Production” value (listed as peptide of Formula I) is given as 10-30%.
